Holding throughout (experiment): NCI-60 cell line screen, 48 h
Assay [1] relates to EKVX NSCLC.
The test system of assay [2] is IGROV1 ovarian.
The subject of assay [3] is OVCAR-3 ovarian.
In assay [4] the test system is MDA-MB-435.
Assay [5] concerns NCI-H460 lung.
For assay [6], the system named is OVCAR-5 ovarian.
Assay [7] concerns TK-10 renal.
Assay [8] deals with CAKI-1 renal.
Assay [9] relates to HS 578T breast.
For assay [10], the system named is LOX IMVI melanoma.

Where “and” joins values, the source holds several entries; their conditions need not be identical. Identical values can stand only once.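 Results reflect a 48-hour exposure of cells in 96-well plates to compound at five concentrations. GI50 = concentration required for 50% inhibition of growth. TGI: total growth inhibition.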

As to `N#Cc1c(N2CCOCC2)nc(=S)[nH]c1-c1ccco1`, the GI50 in [1] was 5.99 µM; in assay [2], 1.86 µM; in [3], 7.93 µM; in assay [4], 15.9 µM; in assay [5] it was 4.4 µM; in assay [6], 4.18 µM. Moreover, the GI50 in assay [7] was 5.35 µM; in [8], 3.77 µM; in assay [9] it was 2.08 µM; in assay [10], 6.68 µM. In addition, the TGI in assay [1] is 78.7 µM; in assay [2], 13 µM; in assay [3], 49.8 µM; in assay [4] it was > 100 µM; in assay [5], > 100 µM; in [6], 88.3 µM. For the same molecule, the TGI was 39.7 µM in assay [7], 62.4 µM in assay [8], 17.3 µM in assay [9] and > 100 µM in assay [10].

Turning to `CCCN(CCS(C)(=O)=O)Cc1ccc(-c2ccc3ncnc(Nc4ccc(OCc5cccc(F)c5)c(Cl)c4)c3c2)o1`, the GI50 in assay [1] is 0.195 µM; in assay [2], 16.5 µM; in assay [3] it was > 22.9 µM; in assay [4], > 25 µM; in [5], > 25 µM; in [6], > 25 µM. Besides, the GI50 in assay [7] was 0.175 µM; in assay [8] it was 0.997 µM; in assay [9] it was > 25 µM; in assay [10] it was > 25 µM. Further, the TGI in assay [1], in assay [2], in [3], in assay [4], in assay [5] and in assay [6] was > 25 µM throughout. The TGI in assay [7], in assay [8], in [9] and in assay [10] was > 25 µM in each case.

As for `O=C(OCc1ccc2ccccc2n1)c1cn(C2CC2)c2cc(N3CCN(Cc4ccc5ccccc5n4)CC3)c(F)cc2c1=O`, the GI50 in [1] is 29.6 µM; in assay [2] it was > 93.2 µM; in [3], 44.9 µM; in assay [4], 39.4 µM; in assay [5] it was 39.3 µM; in [6], > 81.5 µM. The GI50 in assay [7] was 31.9 µM; in [8], 55.7 µM; in assay [9] it was 40.6 µM; in assay [10] it was 29 µM. In addition, the TGI in assay [1], in assay [2], in [3], in [4], in assay [5] and in assay [6] was > 100 µM in each case. For the same molecule, the TGI in assay [7] is > 74.6 µM; in [8], > 100 µM; in assay [9], > 100 µM; in [10], > 89.5 µM.

Turning to `COc1ccc2c(c1)N(CCO)C1=C(C(=O)OC1)C2c1cccc(F)c1` (stereo not given), the GI50 in [1] was 1.34 µM; in [2], 0.433 µM; in assay [3], 0.188 µM; in assay [4] it was 0.112 µM; in [5] it was 0.227 µM; in assay [6] it was 2.07 µM. For the same molecule, the GI50 in assay [7] is 10.3 µM; in assay [8], 0.393 µM; in assay [9] it was 0.511 µM; in assay [10] it was 0.454 µM. For the same molecule, the TGI in [1] was > 50 µM; in assay [2] it was > 50 µM; in [4], 0.348 µM; in assay [5], > 50 µM; in assay [6] it was > 50 µM; in assay [7], > 50 µM. The TGI in assay [8], in assay [9] and in assay [10] was > 50 µM throughout.

For `O=C(O)c1ccc(C(=O)c2ccccc2)c(C(=O)O)c1`, the TGI in [1], in assay [2], in assay [3], in assay [4], in assay [5] and in assay [6] was > 100 µM throughout. The TGI in assay [7], in assay [8], in assay [9] and in [10] was > 100 µM each time.

In the case of `COc1ccc(-c2[nH]c3ccccc3c2-c2ccc(OC)cc2)cc1`, the GI50 is 5.05 µM in assay [1]; 11.2 µM in assay [2]; 2.18 µM in assay [3]; 1.79 µM in assay [4]; 3.65 µM in [5]; 15.4 µM in [6]. For the same molecule, the GI50 in [7] was 12.6 µM; in assay [8], 3.67 µM; in [9], 4.41 µM; in assay [10], 3.77 µM. The TGI was 42.9 µM in assay [1]; 27.5 µM in [2]; 5.27 µM in [3]; 4.58 µM in [4]; 14 µM in assay [5]; 33.9 µM in assay [6]. For the same molecule, the TGI was determined as 41 µM in assay [7], 17.1 µM in assay [8], 43.8 µM in [9] and 14.8 µM in assay [10].

Consider `O=C1OC(=O)C(=C\c2ccc3c(c2)OCO3)/C1=C/c1ccc2c(c1)OCO2`, for which the TGI in [1], in assay [2], in assay [3], in [4], in assay [5] and in [6] was > 100 µM each time. The TGI in [7], in assay [8], in [9] and in [10] was > 100 µM each time.

As to `O=C(Nc1ccc(OCc2nnc(-c3ccc(Cl)cc3)o2)c(F)c1)Nc1ccc(Cl)c(C(F)(F)F)c1`, the GI50 in assay [1] is 2.64 µM; in assay [2], 2.9 µM; in assay [3], 1.7 µM; in [4] it was 2.62 µM; in assay [5], 1.85 µM; in assay [6], 3.66 µM. For the same molecule, the GI50 is 3.72 µM in assay [7], 2.97 µM in assay [8], 2.13 µM in assay [9] and 2.23 µM in [10]. Besides, the TGI in assay [1] was determined as 10.4 µM; in assay [2], 10.5 µM; in assay [3] it was 5.01 µM; in [4], 11.6 µM; in assay [5], 4.86 µM; in assay [6], 17.6 µM. The TGI was determined as 17 µM in [7], 12.2 µM in [8], 7.96 µM in [9] and 6.66 µM in [10].

For `O=C1c2ccccc2-c2cc([N+](=O)[O-])c([N+](=O)[O-])cc21`, the TGI in assay [1] stood at 4.11 µM; in [2] it was 2.84 µM; in [3], 1.01 µM; in assay [4] it was 3.27 µM; in assay [5] it was 3.06 µM; in assay [6], 5.41 µM. Further, the TGI in [7] was 2.81 µM; in [8] it was 6.17 µM; in assay [9] it was > 100 µM; in assay [10], 2.12 µM.

Take `CO/N=C(\COc1ccc2c(c1)[nH]c1ccccc12)c1ccc(F)cc1`: the GI50 in assay [1] was 65.9 µM; in [2], 77.3 µM; in assay [3], 10.6 µM; in [4], > 100 µM; in assay [5], > 100 µM; in [6] it was > 100 µM. The GI50 in assay [7] was 25.9 µM; in [8] it was > 100 µM; in assay [9], 23.4 µM; in assay [10], > 100 µM. Further, the TGI in [1], in assay [2], in assay [3], in [4], in assay [5] and in [6] was > 100 µM each time. Besides, the TGI in [7], in [8], in assay [9] and in assay [10] was > 100 µM throughout.

As to `N#CC1(C(N)=O)C(c2ccc(Cl)cc2)CC(=O)CC1c1ccc(Cl)cc1` (stereo not given), the GI50 in assay [1] is 15.5 µM; in assay [2] it was 18.1 µM; in [3] it was 15.8 µM; in [4] it was 16.3 µM; in assay [5], 17.4 µM; in assay [6] it was 16.4 µM. Further, the GI50 was 17.1 µM in assay [7], 20.4 µM in [8], 23.3 µM in assay [9] and 17 µM in assay [10]. In addition, the TGI worked out at 32.7 µM in assay [1]; 33.7 µM in [2]; 33.4 µM in assay [3]; 33.2 µM in [4]; 33.4 µM in assay [5]; 33.1 µM in [6]. Also, the TGI worked out at 39.5 µM in assay [7], 55.9 µM in [8], 61.6 µM in assay [9] and 33.3 µM in assay [10].

For `Nc1nc(OCc2ccccc2)c2[nH]cnc2n1`, the GI50 in [1] was 64.1 µM and 32.3 µM; in assay [2], 25.3 µM and 9.01 µM; in [3] it was 33.9 µM; in [4] it was 41.1 µM and 26.9 µM; in [5] it was 35.8 µM and 37.6 µM; in assay [6], 52.7 µM and 42.6 µM. For the same molecule, the GI50 in assay [7] was 56.4 µM and 11.7 µM; in [8] it was 13.2 µM and 13.4 µM; in assay [9] it was 18.9 µM and 18.3 µM; in [10], 34 µM and 26.2 µM. The TGI in [1] is 307 µM and 274 µM; in assay [2] it was 93.3 µM and 271 µM and 34.4 µM; in assay [3], 400 µM and 284 µM; in assay [4] it was 143 µM; in [5], 400 µM and 195 µM; in assay [6] it was 241 µM and 240 µM. Further, the TGI was 183 µM and 104 µM in assay [7]; 44.2 µM and 72.4 µM and 43.5 µM in assay [8]; 49.5 µM and 57.5 µM in assay [9]; 273 µM and 115 µM in assay [10].

`O=S(=O)(Nc1cc(Sc2cccc3cccnc23)c(O)c2ccccc12)c1ccc(F)cc1`: the GI50 in assay [1] is 1.41 µM; in assay [2], 1.06 µM; in [3] it was 0.869 µM; in assay [4], 2.27 µM; in [5], 0.59 µM; in [6] it was 2.63 µM. For the same molecule, the GI50 was 2.81 µM in assay [7], 2.79 µM in [8], 4.44 µM in assay [9] and 0.624 µM in assay [10]. In addition, the TGI in [1] was 6.5 µM; in assay [2] it was 4.2 µM; in [3], 3.08 µM; in assay [4] it was 8.66 µM; in [5] it was 11 µM; in assay [6], 10.6 µM. In addition, the figures for the TGI in assay [7], in [9] and in assay [10] were 11.5 µM, 45.7 µM and 2.82 µM, respectively.

`O=C1c2cccnc2C(=O)c2c1c(C(=O)NCCCN1CCCCC1)c1ccccn21`: the GI50 in assay [1] was 1.37 µM; in assay [2], 1.23 µM; in assay [3], 0.321 µM; in assay [4] it was 0.403 µM; in assay [5], 0.299 µM; in assay [6] it was 1.85 µM. For the same molecule, the GI50 in [9] was 2.59 µM; in assay [10] it was 0.49 µM. Moreover, the TGI in [1] was found to be 3.2 µM; in [2], 3.62 µM; in [3] it was 1.75 µM; in assay [4], 1.52 µM; in assay [5], 1.46 µM; in assay [6], 7.44 µM. Moreover, the TGI in assay [9] came out at 9.75 µM; in assay [10], 2.03 µM.

As for `CN(C)CCCn1c(=O)c2ccccc2c2ccccc21`, the GI50 was 13.6 µM in assay [1]; 20.4 µM in assay [3]; 11.8 µM in assay [4]; 7.55 µM in [5]; 22.6 µM in assay [6]; 20.3 µM in [7]. For the same molecule, the results for the GI50 in assay [8], in assay [9] and in assay [10] were 6.23 µM, 17.8 µM and 5.13 µM, respectively. Also, the TGI was 44.9 µM in assay [1]; 52.4 µM in [3]; 26.6 µM in assay [4]; 25.8 µM in assay [5]; 69.7 µM in [6]; > 100 µM in [7]. For the same molecule, the TGI in assay [8] came out at 34.9 µM; in assay [9], 49 µM; in [10], 44 µM.

For the molecule `CCOC(=O)C1=C(C)N(c2ccc(Cl)cc2)[C@]2(C#N)C(O)=C(Cl)C(Cl)=C(O)[C@]12C#N`, the GI50 in assay [1] is 6.24 µM; in assay [2] it was > 100 µM; in assay [3], 65 µM; in assay [4] it was 44.8 µM; in [5], > 100 µM; in [7], 65.4 µM. Moreover, the GI50 in assay [8] is 38 µM; in assay [9], > 100 µM; in assay [10] it was 4.95 µM. Further, the TGI in assay [1] is 43.2 µM; in assay [2] it was > 100 µM; in [3] it was > 100 µM; in [4], > 100 µM; in assay [5] it was > 100 µM; in assay [7], > 100 µM. The TGI in [8], in [9] and in [10] was > 100 µM throughout.
